Legend:
Settings in all cases: incubation time: 72 h
CAL-51 [1] = assay: drug sensitivity score (DSS), CellTiter-Blue viability (DSS (AUC-based score)); higher = stronger viability inhibition; extreme values may be limits of the assay
Experimental: (§1)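 DSRT with the CellTiter-Blue (resazurin reduction) viability readout, fluorescence 560/590 nm, 72 h incubation. Plates were normalised to DMSO and benzethonium chloride controls. DSS is computed from the area under the fitted dose-response curve (5 or 9 concentrations).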

CAL-120 [2] = assay: as above
Experimental: as §1

HCC1937 [3] = assay: as above
Experimental: as §1

HCC1143 [4] = assay: as above
Experimental: as §1

MDA-MB-468 [5] = assay: as above
Experimental: as §1

CAL-85-1 [6] = assay: as above
Experimental: as §1

SK-BR-3 = assay: as above
Experimental: as §1

Hs578T [7] = assay: as above
Experimental: as §1

MDA-MB-231 = assay: drug sensitivity score (DSS), CellTox Green (DSS (AUC-based score)); higher = stronger drug effect (viability inhibition or cytotoxicity); extreme values may be limits of the assay
How it was run: (§2)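 Using 20 µl of cell suspension per well, breast cancer cell lines were seeded into 384-well plates pre-loaded with compound at 5 concentrations in 10-fold steps across a compound-specific 10,000-fold range. Incubation lasted 72 h, after which CellTox Green fluorescence at 485/520 nm and then CellTiter-Glo luminescence, following 10 min at room temperature, were recorded. Each plate was normalised to 0.1 % DMSO and a positive kill control before the drug sensitivity score was derived from the area under the fitted dose-response curve.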

BT-474 = assay: as above
How it was run: as §2

CAL-51 [8] = assay: as above
How it was run: as §2

CAL-120 [9] = assay: as above
How it was run: as §2

MDA-MB-453 = assay: as above
How it was run: as §2

MCF-10A = assay: as above
How it was run: as §2

HCC1937 [10] = assay: as above
How it was run: as §2

HCC1143 [11] = assay: as above
How it was run: as §2

MDA-MB-436 = assay: as above
How it was run: as §2

MDA-MB-468 [12] = assay: as above
How it was run: as §2

BT-549 = assay: as above
How it was run: as §2

HDQ-P1 = assay: as above
How it was run: as §2

CAL-148 = assay: as above
How it was run: as §2

CAL-85-1 [13] = assay: as above
How it was run: as §2

HCC1599 = assay: as above
How it was run: as §2

MFM-223 = assay: as above
How it was run: as §2

Hs578T [14] = assay: as above
How it was run: as §2

DU-4475 = assay: as above
How it was run: as §2

SMILES | drug sensitivity score (CAL-51 [1]) | drug sensitivity score (CAL-120 [2]) | drug sensitivity score (HCC1937 [3]) | drug sensitivity score (HCC1143 [4]) | drug sensitivity score (MDA-MB-468 [5]) | drug sensitivity score (CAL-85-1 [6]) | drug sensitivity score (SK-BR-3) | drug sensitivity score (Hs578T [7]) | drug sensitivity score (MDA-MB-231) | drug sensitivity score (BT-474) | drug sensitivity score (CAL-51 [8]) | drug sensitivity score (CAL-120 [9]) | drug sensitivity score (MDA-MB-453) | drug sensitivity score (MCF-10A) | drug sensitivity score (HCC1937 [10]) | drug sensitivity score (HCC1143 [11]) | drug sensitivity score (MDA-MB-436) | drug sensitivity score (MDA-MB-468 [12]) | drug sensitivity score (BT-549) | drug sensitivity score (HDQ-P1) | drug sensitivity score (CAL-148) | drug sensitivity score (CAL-85-1 [13]) | drug sensitivity score (HCC1599) | drug sensitivity score (MFM-223) | drug sensitivity score (Hs578T [14]) | drug sensitivity score (DU-4475)
C[C@@]1(C(=O)Nc2ccc(F)nc2)CCCN1c1nc(Nc2cc(C3CC3)n[nH]2)c2cccn2n1 | 9.17 | 8.33 | 6.32 | 9.58 | 7.88 | 10.6 | 5.88 | 5.68 | 6.52 | 0 | 10.5 | 3.17 | 0 | 6.69 | 0 | 9.05 | 0 | 18.2 | 0 | 4.62 | 2.31 | 0 | 0 | 3.84 | 0 | 0
COC1=CC(c2cc3ccccc3[nH]2)=N/C1=C\c1[nH]c(C)cc1C [Obatoclax] | 7.63 | 25.3 | 25.1 | 9.51 | 16.6 | 8.55 | 20.1 | 16.6 | 12.7 | 0 | 6.54 | 0 | 0 | 0 | 0 | 0 | 0 | 0 | 0 | 0 | 0 | 0 | 0 | 0 | 0 | 0
CS(=O)(=O)OCCCCOS(C)(=O)=O [Busulfan] | 0 | 0 | 2.62 | 0 | 0 | 0 | 0 | 0 | 0 | 0 | 0 | 0 | 0 | 0 | 0 | 0 | 0 | 3.07 | 0 | 2.69 | 0 | 0 | 0 | 0 | 0 | 0
COC(=O)C[C@](O)(CCCC(C)(C)O)C(=O)O[C@@H]1C(OC)=C[C@]23CCCN2CCc2cc4c(cc2[C@H]13)OCO4 [Omacetaxine] | 30.7 | 28.6 | 31.8 | 24.5 | 28.5 | 31.8 | 28.3 | 28.8 | 7.01 | 0.916 | 0 | 1.24 | 0 | 13.3 | 0 | 0 | 1.54 | 3.61 | 4.27 | 3.97 | 6.49 | 29 | 0 | 18.3 | 17.1 | 0

Reference: the supplement of paper PMC4862054
